Experiments:
breast cancer = conditions: preclinical models of breast cancer; cited from earlier work
[1] = pH dependent hydrolysis of the hydrazone bond followed by MALDI-TOF-MS; format: physicochemical; conditions: HCl solution at pH 3; MALDI-TOF-MS at two points in time
HeLa cells = test: Cell viability assay (MTS): co-administration with SO1861 and dianthin-EGF, inhibition of SO1861-mediated endosomal escape; format: cell-based, human; conditions: 500 nM test substance + SO1861 concentration curve + […] dianthin-EGF, 72 hr
Experimental: HeLa cells were seeded in DMEM (PAN-Biotech GmbH) supplemented with 10% fetal bovine serum (PAN-Biotech GmbH) and 1% penicillin/streptomycin (PAN-Biotech GmbH), in a 96 well plate at 5,000 c/w in 100 μL/well and incubated overnight at 37° C. and 5% CO2. The next day 20× concentrated stocks of the PAMAM, PAMAM-conjugates, G4-dendron (prepared in Example 3) or chloroquine (Sigma Aldrich) samples were prepared in DMEM. The media was removed from the cell culture plate and replaced by […] culture media, followed by the addition of 10 μL sample/well (from the 20× concentrated stocks) and a 45 min incubation at 37° C. […] Followed by 15 sec sonication and a brief re-heating at 50° C. for 1 min, while shaking at 1,250 rpm. Subsequently a serial dilution of SO1861 was prepared in PBS.
As control for the inhibition of endosomal acidification chloroquine was used.

In the case of ado-trastuzumab emtansine, the “dose levels inducing tumor regression” value (breast cancer) is given as at least 3 mg/kg.

For `CC(=O)OC1C(C)OC(OC2C(C)OC(OC(=O)[C@]34CCC(C)(C)CC3C3=CCC5[C@@]6(C)CC[C@H](OC7OC(C(=O)O)C(O)C(OC8OCC(O)C(O)C8O)C7OC7OC(CO)C(O)C(O)C7O)[C@@](C)(/C=N/NC(=O)CCCCCN7C(=O)C=CC7=O)C6CC[C@@]5(C)[C@]3(C)C[C@H]4O)C(OC3OC(C)C(OC4OCC(O)C(OC5OC(CO)C(O)C(O)C5O)C4O)C(O)C3O)C2O)C(O)C1OC1OCC(O)C(O)C1O` (stereo partly drawn) [SO1861-EMCH], the “hydrolysis of the hydrazone bond” value [1] was “the hydrazone bond is responsive towards hydrolysis and gets cleaved”.

In the case of `CCN(CC)CCCC(C)Nc1ccnc2cc(Cl)ccc12` (stereo not drawn) [chloroquine], the “inhibition of SO1861-mediated endosomal escape of the targeted toxin and subsequent cell killing” value (HeLa cells) is reported as “inhibit the SO1861-mediated endosomal escape of the targeted toxin and subsequent cell killing”.

Source: US20220023433A1, “Saponin Conjugates” (Sapreme Technologies B.V., priority 2018, published 2022)
